Laboratory results reported in EP0497314A1, “Use of azapirones in attention deficit hyperactivity disorder” (Bristol-Myers Squibb Company, priority 1991, dated 1992).
Structures can show the parent of a compound that is named as a salt. Marks after values point to notes of the source that are not given here.

How the values were obtained:
rabbit cortex = test: Quantitative EEG, rabbit cortex, intravenous administration; assay type: in vivo, rabbits; settings: for group percent change in electrical energy from pre-drug control, Δ band / mean change ± S.E. in electrical energy from pre-drug control, Δ band: Δ = 0.5-3.5 Hz; for group percent change in electrical energy from pre-drug control, α band / mean change ± S.E. in electrical energy from pre-drug control, α band: α= 7-13 Hz; for group percent change in electrical energy from pre-drug control, β band / mean change ± S.E. in electrical energy from pre-drug control, β band: β= 13-25 Hz; for group percent change in electrical energy from pre-drug control, γ band / mean change ± S.E. in electrical energy from pre-drug control, γ band: γ= 25-40 Hz; for group percent change in electrical energy from pre-drug control, θ band / mean change ± S.E. in electrical energy from pre-drug control, θ band: θ= 3.5-7.0 Hz
Summary of the method: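 Restrained rabbits with cortical leads had EEG split into Δ, ϑ, α, β and γ bands and integrated over 1 h from the moment of i.v. injection, in saline, dosed as free base. Counts were compared with each animal's own pretreatment control by paired t-test (p≦0.05). Doses were reduced geometrically to a no-effect level.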

[1] = tested on: attention deficit hyperactivity disorder; test: Treatment of children with attention deficit hyperactivity disorder (Examples 1 and 2); assay type: in vivo, child
Experimental: Buspirone is administered to a person, who has been identified by a clinician as having the symptoms associated with attention deficit hyperactivity disorder. During treatment, the child received […] of buspirone twice a day.
Buspirone is administered to a person, who has been identified by a clinician as having the symptoms associated with attention deficit hyperactivity disorder. During the treatment, the child received […] of buspirone three times a day.

[2] = tested on: fronto-occipital cortex of the cat; test: Quantitative EEG, fronto-occipital cat cortex, subcutaneous administration; assay type: in vivo, cats; settings: for EEG profile: cat cortex; for group percent change in electrical energy from pre-drug control, Δ band / mean change ± S.E. in electrical energy from pre-drug control, Δ band / group percent change in electrical energy from pre-drug control, α band / mean change ± S.E. in electrical energy from pre-drug control, α band / group percent change in electrical energy from pre-drug control, β band / mean change ± S.E. in electrical energy from pre-drug control, β band / group percent change in electrical energy from pre-drug control, γ band / mean change ± S.E. in electrical energy from pre-drug control, γ band / group percent change in electrical energy from pre-drug control, θ band / mean change ± S.E. in electrical energy from pre-drug control, θ band: fronto-occipital cat cortex; for group percent change in electrical energy from pre-drug control, α band / mean change ± S.E. in electrical energy from pre-drug control, α band: α= 7-13 Hz; for group percent change in electrical energy from pre-drug control, β band / mean change ± S.E. in electrical energy from pre-drug control, β band: β= 13-25 Hz; for group percent change in electrical energy from pre-drug control, γ band / mean change ± S.E. in electrical energy from pre-drug control, γ band: γ= 25-40 Hz; for group percent change in electrical energy from pre-drug control, θ band / mean change ± S.E. in electrical energy from pre-drug control, θ band: θ= 3.5-7.0 Hz
Summary of the method: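 Adult female mongrel cats (n=6 per group) with implanted electrodes were recorded while held in restraining bags, with EEG filtered into Δ, ϑ, α, β and γ bands and integrated as energy counts. Drugs were given subcutaneously in saline, with doses calculated as free base, and recording started 30 min post-injection. Changes from each animal's pre-treatment control were tested by paired Student t-test (P≦0.05).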

[3] = tested on: evoked electrographic activity; settings: limited number of cats; John, et al, 1973; cited from earlier work
[4] = rabbit cortex, 0.25 mg/kg free base i.v.
[5] = rabbit cortex, 0.50 mg/kg free base i.v.
[6] = child with symptoms of attention deficit hyperactivity disorder, 5 mg/kg twice a day
[7] = Δ = 0.05-35 Hz, 0.125 mg/kg free base s.c.
[8] = Δ = 0.05-35 Hz, 0.5 mg/kg free base s.c.
[9] = Δ = 0.5-3.5 Hz, 0.25 mg/kg free base s.c.
[10] = Δ = 0.5-3.5 Hz, 2.0 mg/kg free base s.c.
[11] = Δ = 0.5-3.5 Hz, 8.0 mg/kg free base s.c.

O=C1CC2(CCCC2)CC(=O)N1CCCCN1CCN(c2ncccn2)CC1 [Buspirone HCl, buspirone hydrochloride]
minimal effective dose (rabbit cortex; Oryctolagus cuniculus, iv, rabbit cortex EEG, dose of free base, read-out: the minimum dose required to produce the EEG profile characteristic of that particular drug): 0.5 mg/kg
the no-effect dose (rabbit cortex; rabbit cortex EEG, dose of free base): 0.25† mg/kg, i.v.
EEG profile (rabbit cortex; rabbit cortex, i.v.): shares a component of stimulation similar to that of methylphenidate and dextroamphetamine
group percent change in electrical energy from pre-drug control, Δ band (rabbit cortex; [4]): 0%
mean change ± S.E. in electrical energy from pre-drug control, Δ band (rabbit cortex; [4]): -1 ± 18 instrument counts
group percent change in electrical energy from pre-drug control, Δ band (rabbit cortex; [5]): -34%
mean change ± S.E. in electrical energy from pre-drug control, Δ band (rabbit cortex; [5]): -114 ± 25 instrument counts
group percent change in electrical energy from pre-drug control, α band (rabbit cortex; [4]): -1%
mean change ± S.E. in electrical energy from pre-drug control, α band (rabbit cortex; [4]): -2 ± 12 instrument counts
group percent change in electrical energy from pre-drug control, α band (rabbit cortex; [5]): -32%
mean change ± S.E. in electrical energy from pre-drug control, α band (rabbit cortex; [5]): -70 ± 13 instrument counts
group percent change in electrical energy from pre-drug control, β band (rabbit cortex; [4]): -4%
mean change ± S.E. in electrical energy from pre-drug control, β band (rabbit cortex; [4]): -5 ± 7 instrument counts
group percent change in electrical energy from pre-drug control, β band (rabbit cortex; [5]): -28%
mean change ± S.E. in electrical energy from pre-drug control, β band (rabbit cortex; [5]): -47 ± 10 instrument counts
group percent change in electrical energy from pre-drug control, γ band (rabbit cortex; [4]): -5%
mean change ± S.E. in electrical energy from pre-drug control, γ band (rabbit cortex; [4]): -5 ± 2 instrument counts
group percent change in electrical energy from pre-drug control, γ band (rabbit cortex; [5]): -14%
mean change ± S.E. in electrical energy from pre-drug control, γ band (rabbit cortex; [5]): -17 ± 3 instrument counts
group percent change in electrical energy from pre-drug control, θ band (rabbit cortex; [4]): -5%
mean change ± S.E. in electrical energy from pre-drug control, θ band (rabbit cortex; [4]): -10 ± 14 instrument counts
group percent change in electrical energy from pre-drug control, θ band (rabbit cortex; [5]): -35%
mean change ± S.E. in electrical energy from pre-drug control, θ band (rabbit cortex; [5]): -86 ± 11 instrument counts
clinical response during and after treatment [1, 6]: spectacular and very fast improvement
sleep disturbance [1, 6]: no sleep disturbance
clinical response during and after treatment ([1]; with symptoms of attention deficit hyperactivity disorder, 5 mg/kg three times a day): excellent response
minimal effective dose ([2]; Felis catus, sc, fronto-occipital cat cortex EEG, dose of free base, read-out: the minimum dose required to produce the EEG profile characteristic of that particular drug): 0.25 mg/kg
doses required to produce the combined antipsychotic-stimulant EEG profile ([2]; cat cortex EEG, s.c.): at least twice that of thioridazine and chlorpromazine
EEG profile ([2]; 8.0 mg/kg dose, s.c.): causes an increase in electrical "power" in the lowest frequency bands
EEG profile ([2]; higher dose (2.0 and 8.0 mg/kg, s.c.)): elicit a profile which deviates from that produced by the stimulants
the no-effect dose ([2]; fronto-occipital cat cortex EEG, dose of free base): 0.125† mg/kg, s.c.
group percent change in electrical energy from pre-drug control, Δ band [2, 7]: -21%
mean change ± S.E. in electrical energy from pre-drug control, Δ band [2, 7]: -46 ± 27 instrument counts
group percent change in electrical energy from pre-drug control, Δ band [2, 8]: -14%
mean change ± S.E. in electrical energy from pre-drug control, Δ band [2, 8]: -31 ± 18 instrument counts
group percent change in electrical energy from pre-drug control, Δ band [2, 9]: +5%
mean change ± S.E. in electrical energy from pre-drug control, Δ band [2, 9]: +10 ± 8 instrument counts
group percent change in electrical energy from pre-drug control, Δ band [2, 10]: +15%
mean change ± S.E. in electrical energy from pre-drug control, Δ band [2, 10]: +30 ± 22 instrument counts
group percent change in electrical energy from pre-drug control, Δ band [2, 11]: +55%
mean change ± S.E. in electrical energy from pre-drug control, Δ band [2, 11]: +89 ± 29 instrument counts
group percent change in electrical energy from pre-drug control, α band ([2]; 0.125 mg/kg free base s.c.): -18%
mean change ± S.E. in electrical energy from pre-drug control, α band ([2]; 0.125 mg/kg free base s.c.): -23 ± 12 instrument counts
group percent change in electrical energy from pre-drug control, α band ([2]; 0.25 mg/kg free base s.c.): -26%
mean change ± S.E. in electrical energy from pre-drug control, α band ([2]; 0.25 mg/kg free base s.c.): -35 ± 6 instrument counts
group percent change in electrical energy from pre-drug control, α band ([2]; 0.5 mg/kg free base s.c.): -39%
mean change ± S.E. in electrical energy from pre-drug control, α band ([2]; 0.5 mg/kg free base s.c.): -47 ± 12 instrument counts
group percent change in electrical energy from pre-drug control, α band ([2]; 2.0 mg/kg free base s.c.): -15%
mean change ± S.E. in electrical energy from pre-drug control, α band ([2]; 2.0 mg/kg free base s.c.): -20 ± 14 instrument counts
group percent change in electrical energy from pre-drug control, α band ([2]; 8.0 mg/kg free base s.c.): -6%
mean change ± S.E. in electrical energy from pre-drug control, α band ([2]; 8.0 mg/kg free base s.c.): -5 ± 14 instrument counts
group percent change in electrical energy from pre-drug control, β band ([2]; 0.125 mg/kg free base s.c.): -6%
mean change ± S.E. in electrical energy from pre-drug control, β band ([2]; 0.125 mg/kg free base s.c.): -6 ± 4 instrument counts
group percent change in electrical energy from pre-drug control, β band ([2]; 0.25 mg/kg free base s.c.): -17%
mean change ± S.E. in electrical energy from pre-drug control, β band ([2]; 0.25 mg/kg free base s.c.): -24 ± 5 instrument counts
group percent change in electrical energy from pre-drug control, β band ([2]; 0.5 mg/kg free base s.c.): -23%
mean change ± S.E. in electrical energy from pre-drug control, β band ([2]; 0.5 mg/kg free base s.c.): -24 ± 3 instrument counts
group percent change in electrical energy from pre-drug control, β band ([2]; 2.0 mg/kg free base s.c.): -24%
mean change ± S.E. in electrical energy from pre-drug control, β band ([2]; 2.0 mg/kg free base s.c.): -33 ± 8 instrument counts
group percent change in electrical energy from pre-drug control, β band ([2]; 8.0 mg/kg free base s.c.): -21%
mean change ± S.E. in electrical energy from pre-drug control, β band ([2]; 8.0 mg/kg free base s.c.): -22 ± 7 instrument counts
group percent change in electrical energy from pre-drug control, γ band ([2]; 0.125 mg/kg free base s.c.): +5%
mean change ± S.E. in electrical energy from pre-drug control, γ band ([2]; 0.125 mg/kg free base s.c.): +4 ± 3 instrument counts
group percent change in electrical energy from pre-drug control, γ band ([2]; 0.25 mg/kg free base s.c.): 0%
mean change ± S.E. in electrical energy from pre-drug control, γ band ([2]; 0.25 mg/kg free base s.c.): -1 ± 3 instrument counts
group percent change in electrical energy from pre-drug control, γ band ([2]; 0.5 mg/kg free base s.c.): -5%
mean change ± S.E. in electrical energy from pre-drug control, γ band ([2]; 0.5 mg/kg free base s.c.): -4 ± 4 instrument counts
group percent change in electrical energy from pre-drug control, γ band ([2]; 2.0 mg/kg free base s.c.): -9%
mean change ± S.E. in electrical energy from pre-drug control, γ band ([2]; 2.0 mg/kg free base s.c.): -10 ± 3 instrument counts
group percent change in electrical energy from pre-drug control, γ band ([2]; 8.0 mg/kg free base s.c.): -3%
mean change ± S.E. in electrical energy from pre-drug control, γ band ([2]; 8.0 mg/kg free base s.c.): -2 ± 3 instrument counts
group percent change in electrical energy from pre-drug control, θ band ([2]; 0.125 mg/kg free base s.c.): -22%
mean change ± S.E. in electrical energy from pre-drug control, θ band ([2]; 0.125 mg/kg free base s.c.): -32 ± 16 instrument counts
group percent change in electrical energy from pre-drug control, θ band ([2]; 0.25 mg/kg free base s.c.): -16%
mean change ± S.E. in electrical energy from pre-drug control, θ band ([2]; 0.25 mg/kg free base s.c.): -21 ± 6 instrument counts
group percent change in electrical energy from pre-drug control, θ band ([2]; 0.5 mg/kg free base s.c.): -32%
mean change ± S.E. in electrical energy from pre-drug control, θ band ([2]; 0.5 mg/kg free base s.c.): -46 ± 14 instrument counts
group percent change in electrical energy from pre-drug control, θ band ([2]; 2.0 mg/kg free base s.c.): +13%
mean change ± S.E. in electrical energy from pre-drug control, θ band ([2]; 2.0 mg/kg free base s.c.): +17 ± 15 instrument counts
group percent change in electrical energy from pre-drug control, θ band ([2]; 8.0 mg/kg free base s.c.): +34%
mean change ± S.E. in electrical energy from pre-drug control, θ band ([2]; 8.0 mg/kg free base s.c.): +35 ± 15 instrument counts
effect on evoked electrographic activity [3]: possessed properties similar to both chlorpromazine and methamphetamine
